# Reference: patent US20090181910A1, “METHOD OF PREVENTION AND ALLEVIATION OF TOXICITY BY MODULATION OF IRF3” (priority 2006, published 2009)
# Legend:
# [1] = Dolphin et al. 1987; cited from earlier work
# Cyp3A11 [2] = settings: mouse, in vivo
# ZF5 = experiment: BMM Q-PCR: ZF5 mRNA; type: cell-based, Murine; settings: polyI:C and LPS; data not shown
# [3] = Serum ALT in APAP hepatotoxicity
# RXRα [4] = experiment: BMM anti-RXRα Western blot; type: cell-based, Murine; settings: polyI:C and LG268 treatment, 24 hrs; FIG. 8e
# [5] = Hendrix et al. 1993; cited from earlier work
# Cyp3A11 [6] = experiment: Liver RNA Q-PCR, polyI:C/APAP-treated mice: Cyp3A11; settings: polyI:C 100 μg i.v.; FIG. 1C
# [7] = Survival following APAP treatment; type: in vivo, mice; settings: for survival against APAP overdose: APAP 600 mg/kg
# Experimental: FIG. 4: Percentage survival following APAP treatment with or without polyI:C. (A) Wildtype (n=8) fasted and were treated with 0.1% NaCl or polyI:C (100 μg) intravenous (i.v.) 24 hours prior to treatment with APAP (600 mg/kg) by intraperitoneal (i.p.) injection. (B) Wildtype and IRF3−/− (n=6-8) fasted and were treated with 0.1% NaCl or polyI:C (100 μg) intravenous (i.v.) 24 hours prior to treatment with APAP (600 mg/kg) by intraperitoneal (i.p.) injection. (C) Wildtype mice (n=6-8) fasted and were treated with 0.1% NaCl or polyI:C (100 μg) intravenous (i.v.) and PCN (75 mg/kg) intraperitoneal (i.p.) 24 hours prior to treatment with APAP (175 mg/kg) by intraperitoneal (i.p.) injection.
# Age and sex matched 6-9 week old mice were used for all experiments. C57/B16 mice were obtained from Jackson Laboratory. IRF3^−/− mice were obtained from Dr. T. Taniguchi. For APAP hepatotoxicity analysis, mice fasted for […] and then administered Vehicle (0.1% NaCl) or APAP (175-600 mg/kg) by intraperitoneal injection (i.p.). For serum and histological studies, mice were sacrificed at 6-7 hours post injection and serum and liver samples were retrieved. For survival studies, mice were studied for up to 5 days. For polyI:C studies, mice were also treated with 0.1% NaCl or polyI:C (100 μg) intravenous (i.v.) 12-24 hours prior to APAP treatment. To study the effects of PCN on APAP treatment, mice were treated with PCN (75 mg/kg) or control (1% DMSO, corn oil) by intraperitoneal (i.p.) 12-24 hours prior to APAP treatment. To study the effects of ethanol (EtOH) on APAP treatment, mice were given 20% EtOH in water ad libidum for 5 days prior to APAP therapy. PolyI:C treatment for these experiments occurred at Day 3 and Day 5. Serum alanine aminotransferase (ALT) levels were determined using manufacturer's protocol (TECO Diagnostics). For H&E staining, liver samples were fixed in formalin for 48 hours. H&E stainings were done by UCLA Tissue Procurement Core Laboratory (TPCL).
# Cyp1A2 = experiment: Liver RNA Q-PCR, polyI:C/APAP-treated mice: Cyp1A2; settings: polyI:C 100 μg i.v.; FIG. 1B
# [8] = mouse, in vivo
# RXRα [9] = test system: RXRα; design: species or system mice; settings: mouse, in vivo
# Hes1 = experiment: BMM Q-PCR: Hes1 mRNA; type: cell-based, Murine; settings: FIG. 9b
# Huh7 cells = experiment: Rhodamine 123 assay, mitochondrial membrane potential; type: cell-based, human; settings: Huh7 cells co-treated with ASA 20 μg/ml and polyI:C 1 μg/ml transfected, 24 hours; mock-transfected vs RXRα overexpressing
# Experimental: FIG. 15: PolyI:C potentiation of ASA-induced mitochondrial damage. pBabe-Huh7 cells (Huh7_MT) and pBabe-RXRα-Huh7 cells (Huh7 RXRα) were stimulated with Control (DMSO) and ASA (20 μg/ml) with or without polyI:C (1 μg/ml, transfected) for 24 hours. Cells were treated with 5 μg/ml of rhodamine 123 (Invitrogen) for 30 min, trypsinized and resuspended in PBS. Flow cytometry was done to determine rhodamine 123 uptake.
# RXRα [10] = type: cell-based, Murine
# [11] = H&E liver histology in APAP hepatotoxicity; settings: for prevention of APAP-induced necrosis: FIG. 3A
# CYP24 = test system: CYP24; design: species or system mice; settings: mouse, in vivo
# UGT1A6 = test system: UGT1A6; design: species or system mice; settings: mouse, in vivo
# [12] = mouse, in vivo; remark: listed apart in the source
# [13] = mouse, in vivo; remark: listed apart in the source
# [14] = test system: hepatic LXR, FXR and PPARα target genes; type: cell-based, human
# CRBPII = experiment: RAW 264.7 Q-PCR: CRBPII; type: cell-based, murine
substance,measurement,setting,value
polyinosinic:polycytidylic acid [polyI:C],ASA metabolism after polyI:C treatment,[1],results in defective ASA metabolism
same,effect on ASA or PCN induction of CYP3A11 mRNA,Cyp3A11 [2],diminished
same,effect on induction of CYP3A11 by PCN,Cyp3A11 [2],blunted the induction of CYP3A11 by PCN
same,ZF5 mRNA levels,ZF5,unaffected
same,prevention of ethanol-promoted APAP induction of serum ALT,"[3]; 20% EtOH 5 days, polyI:C Day 3 and Day 5, APAP 175 mg/kg, FIG. 2C",effective at preventing ethanol from promoting APAP induction of serum ALT levels
same,prevention of PCN/APAP induction of serum ALT,"[3]; polyI:C 100 μg i.v. and PCN 75 mg/kg 24 h before APAP 175 mg/kg, FIG. 2B",capable of preventing PCN/APAP induction of serum ALT levels
same,prevention of APAP-induced serum ALT increase,"[3]; polyI:C 100 μg i.v. pretreatment, APAP 350 mg/kg, wildtype and IRF3-deficient mice, FIG. 2A",effectively prevented such increase in serum ALT only when IRF3 was present
same,RXRα protein levels in IRF3^−/− BMMs,RXRα [4],significantly higher than in WT or IFNAR^−/− BMMs
same,toxicity of polyI:C,[5],can be taken at high dosages without any toxicity
same,basal Cyp3A11 mRNA level in liver,Cyp3A11 [6],potently repressed
same,survival against APAP overdose,"[7]; IRF3 deficient mice, FIG. 4B",did not protect from APAP overdose
same,survival with APAP plus PCN,"[7]; polyI:C 100 μg i.v. and PCN 75 mg/kg before APAP 175 mg/kg, FIG. 4C",prevents overdose from the combination of APAP and cytochrome P450 inducers such as PCN
same,survival against APAP overdose,"[7]; wildtype mice, polyI:C 100 μg i.v. 24 h prior, FIG. 4A",extremely effective at preventing death from APAP overdose
same,basal Cyp1A2 mRNA level in liver,Cyp1A2,potently repressed
same,"hepatotoxicity, agent alone",[8],did not cause significant hepatotoxicity
same,IRF3 dependence of repression of RXRα and hepatic nuclear receptor target genes,RXRα [9],IRF3 was critical for the repression of RXRα and hepatic nuclear receptor target genes
same,RXRα mRNA expression in liver,RXRα [9]; iv,significant reduction in RXRα mRNA expression
same,Hes1 mRNA,Hes1; LPS 10 ng/ml or polyI:C 1 μg/ml 4 hrs,potently induced
same,Hes1 induction in IRF3^−/− and IFNAR^−/− BMMs,Hes1; polyI:C 1 μg/ml 4 hrs,"involves IRF3, but not Type I IFNs"
same,mitochondrial membrane potential (rhodamine 123),Huh7 cells,"loss of mitochondrial membrane potential in mock-transfected Huh7 cells co-treated with ASA and polyI:C, but not in Huh7 cells overexpressing RXRα"
same,polyI:C-mediated inhibition of RXRα mRNA in knockout BMMs,RXRα [10],defective in IRF3^−/− BMMs but not IFNAR^−/− BMMs
same,"RXRα mRNA repression, extended time course","RXRα [10]; 1, 4 or 8 hrs, FIG. 8b",more potent repressor of RXRα mRNA than LPS
same,RXRα mRNA in BMMs,"RXRα [10]; LPS 10 ng/ml or polyI:C 1 μg/ml, 4 hours, FIG. 8a",repressed RXRα mRNA
same,RXRα primary transcripts,"RXRα [10]; polyI:C 4 or 8 hrs, exon-intron primers, FIG. 9a",strongly repressed
same,RXRα mRNA stability,"RXRα [10]; polyI:C 2 hours then Actinomycin D, FIG. 9a",No significant differences
same,prevention of cell necrosis,"[11]; PCN or ethanol plus lower levels of APAP, FIG. 3B",prevents cell necrosis in these treatments as well
same,prevention of APAP-induced necrosis,"[11]; mice deficient in IRF3, APAP 350 mg/kg",only slightly reduced the severity of necrosis
same,prevention of APAP-induced necrosis,"[11]; wildtype mice, APAP 350 mg/kg",completely prevented such necrosis
same,"effect on induction of CYP24 mRNA by 1,25(OH)2D3",CYP24,blunted
same,IRF3 dependence of UGT1A6 repression,UGT1A6,dependent on IRF3
same,effect on ASA or PCN induction of UGT1A6 mRNA,UGT1A6,diminished
same,liver damage,[12],strongly induced liver damage
same,LCA-mediated serum ALT increase and liver damage,[13],failed to promote LCA-mediated increases of serum ALT levels or enhance liver damage
same,"serum ALT levels, agent alone",[13],did not significantly increase serum ALT levels
same,"effect on LXR, FXR and PPARα-mediated induction of target genes",[14],inhibited
same,9cRA induction of CRBPII,CRBPII,unable to repress 9cRA induction of CRBPII
